Measurements reported in ChEMBL document CHEMBL1201861, “Genomics of Drug Sensitity in Cancer screening data, Wellcome Trust Sanger Institute”.

How the values were obtained:
Experiment in all cases: cells
CP50-MEL-B = format: functional, cell-based, Homo sapiens; conditions: Homo sapiens, CP50-MEL-B;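 also: growth inhibition of the human cell line, measured with a cell viability read-out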
Description: SANGER: Inhibition of human CP50-MEL-B cell growth in a cell viability assay.

DEL = format: functional, cell-based; conditions: Homo sapiens;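 also: growth inhibition of the human DEL cell line, read out with a cell viability assay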
Description: SANGER: Inhibition of human DEL cell growth in a cell viability assay.

DOHH-2 = format: functional, cell-based; conditions: Homo sapiens;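 also: growth inhibition of human DOHH-2 cells, read out with a cell viability assay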
Description: SANGER: Inhibition of human DOHH-2 cell growth in a cell viability assay.

DOK = format: functional, cell-based, Homo sapiens; conditions: Homo sapiens, DOK;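 also: cell viability assay read-out, values reflect inhibition of cell growth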
Description: SANGER: Inhibition of human DOK cell growth in a cell viability assay.

Daoy = format: functional, cell-based, Homo sapiens; conditions: Homo sapiens, Daoy;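 also: daoy cell growth inhibition, read out as cell viability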
Description: SANGER: Inhibition of human Daoy cell growth in a cell viability assay.

ETK-1 = format: functional, cell-based, Homo sapiens; conditions: Homo sapiens, ETK-1;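 also: growth inhibition of human ETK-1 cells, read out with a cell viability assay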
Description: SANGER: Inhibition of human ETK-1 cell growth in a cell viability assay.

EW-1 = format: functional, cell-based, Homo sapiens; conditions: Homo sapiens, EW-1
Description: SANGER: Inhibition of human EW-1 cell growth in a cell viability assay.

EW-18 = format: functional, cell-based; conditions: Homo sapiens;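 also: growth inhibition of EW-18 cells, read out by a cell viability assay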
Description: SANGER: Inhibition of human EW-18 cell growth in a cell viability assay.

EW-24 = format: functional, cell-based; conditions: Homo sapiens;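 also: human EW-24 cancer cell line, growth inhibition read out via a cell viability assay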
Description: SANGER: Inhibition of human EW-24 cell growth in a cell viability assay.

GCIY = format: functional, cell-based, Homo sapiens; conditions: Homo sapiens, GCIY;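 also: growth inhibition of the human GCIY cell line, read out by a cell viability assay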
Description: SANGER: Inhibition of human GCIY cell growth in a cell viability assay.

HCC2157 = format: functional, cell-based; conditions: Homo sapiens;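 also: growth inhibition of the cancer cell line, read out as cell viability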
Description: SANGER: Inhibition of human HCC2157 cell growth in a cell viability assay.

HEC-1 = format: functional, cell-based, Homo sapiens; conditions: Homo sapiens, HEC-1;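 also: growth inhibition of the cell line, read out with a cell viability assay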
Description: SANGER: Inhibition of human HEC-1 cell growth in a cell viability assay.

HLE = format: functional, cell-based, Homo sapiens; conditions: Homo sapiens, HLE;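 also: growth inhibition of human HLE cells, read out by a cell viability assay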
Description: SANGER: Inhibition of human HLE cell growth in a cell viability assay.

HuO-3N1 = format: functional, cell-based, Homo sapiens; conditions: Homo sapiens, HuO-3N1;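 also: cell viability readout used to measure how strongly compounds suppress proliferation of human HuO-3N1 cells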
Description: SANGER: Inhibition of human HuO-3N1 cell growth in a cell viability assay.

JAR = format: functional, cell-based, Homo sapiens; conditions: Homo sapiens, JAR;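 also: growth inhibition of human JAR cells determined with a cell viability assay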
KU-19-19 = format: functional, cell-based, Homo sapiens; conditions: Homo sapiens, KU-19-19
Description: SANGER: Inhibition of human KU-19-19 cell growth in a cell viability assay.

L-428 = format: functional, cell-based; conditions: Homo sapiens
Description: SANGER: Inhibition of human L-428 cell growth in a cell viability assay.

LS-513 = format: functional, cell-based, Homo sapiens; conditions: Homo sapiens, LS-513
Description: SANGER: Inhibition of human LS-513 cell growth in a cell viability assay.

MEL-HO = format: functional, cell-based, Homo sapiens; conditions: Homo sapiens, MEL-HO
Description: SANGER: Inhibition of human MEL-HO cell growth in a cell viability assay.

MKN-45 = format: functional, cell-based, Homo sapiens; conditions: Homo sapiens, MKN-45;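 also: growth inhibition of human MKN-45 cells, measured with a cell viability assay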
MZ2-MEL = format: functional, cell-based, Homo sapiens; conditions: Homo sapiens, MZ2-MEL;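 also: growth inhibition of MZ2-MEL cells read out with a cell viability assay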
Description: SANGER: Inhibition of human MZ2-MEL cell growth in a cell viability assay.

NCI-H1838 = format: functional, cell-based, Homo sapiens; conditions: Homo sapiens, NCI-H1838;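 also: growth inhibition of NCI-H1838 cells, determined with a cell viability readout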
Description: SANGER: Inhibition of human NCI-H1838 cell growth in a cell viability assay.

NCI-H226 = format: functional, cell-based, Homo sapiens; conditions: Homo sapiens, NCI-H226;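 also: cell viability read-out used to gauge growth inhibition of the cells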
Description: SANGER: Inhibition of human NCI-H226 cell growth in a cell viability assay.

NCI-H510A = format: functional, cell-based; conditions: Homo sapiens;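 also: growth inhibition of NCI-H510A cells, read out with a cell viability assay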
NCI-H727 = format: functional, cell-based, Homo sapiens; conditions: Homo sapiens, NCI-H727;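 also: growth inhibition of human NCI-H727 cells, read out with a cell viability assay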
Description: SANGER: Inhibition of human NCI-H727 cell growth in a cell viability assay.

NOS-1 = format: functional, cell-based, Homo sapiens; conditions: Homo sapiens, NOS-1;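 also: growth inhibition of the human NOS-1 cell line, read out with a cell viability assay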
Description: SANGER: Inhibition of human NOS-1 cell growth in a cell viability assay.

NUGC-3 = format: functional, cell-based, Homo sapiens; conditions: Homo sapiens, NUGC-3;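 also: growth inhibition of human NUGC-3 cells, read out with a cell viability assay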
Description: SANGER: Inhibition of human NUGC-3 cell growth in a cell viability assay.

RERF-LC-MS = format: functional, cell-based, Homo sapiens; conditions: Homo sapiens, RERF-LC-MS;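 also: growth inhibition of human RERF-LC-MS cells, read out by a cell viability assay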
Description: SANGER: Inhibition of human RERF-LC-MS cell growth in a cell viability assay.

RKO = format: functional, cell-based, Homo sapiens; conditions: Homo sapiens, RKO;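 also: growth inhibition of human RKO cells, read out with a cell viability assay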
RMG-I = format: functional, cell-based, Homo sapiens; conditions: Homo sapiens, RMG-I;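 also: growth inhibition of human RMG-I cells, read out with a cell viability assay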
Description: SANGER: Inhibition of human RMG-I cell growth in a cell viability assay.

S-117 = format: functional, cell-based, Homo sapiens; conditions: Homo sapiens, S-117
Description: SANGER: Inhibition of human S-117 cell growth in a cell viability assay.

SF-539 = format: functional, cell-based, Homo sapiens; conditions: Homo sapiens, SF-539;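 also: Read-out is a cell viability assay, with IC50 reflecting inhibition of cell growth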
Description: SANGER: Inhibition of human SF539 cell growth in a cell viability assay.

SH-4 = format: functional, cell-based, Homo sapiens; conditions: Homo sapiens, SH-4;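 also: growth inhibition of SH-4 cells, read out with a cell viability assay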
Description: SANGER: Inhibition of human SH-4 cell growth in a cell viability assay.

SK-MEL-1 = format: functional, cell-based; conditions: Homo sapiens;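 also: growth inhibition of human SK-MEL-1 cells, read out by a cell viability assay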
Description: SANGER: Inhibition of human SK-MEL-1 cell growth in a cell viability assay.

SK-PN-DW = format: functional, cell-based; conditions: Homo sapiens;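 also: growth inhibition measured with a viability assay on these cells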
Description: SANGER: Inhibition of human SK-PN-DW cell growth in a cell viability assay.

SNU-C2B = format: functional, cell-based, Homo sapiens; conditions: Homo sapiens, SNU-C2B;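 also: cell viability readout used to measure compound-driven suppression of SNU-C2B cell proliferation, IC50 marking half-maximal growth inhibition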
Description: SANGER: Inhibition of human SNU-C2B cell growth in a cell viability assay.

SW1710 = format: functional, cell-based, Homo sapiens; conditions: Homo sapiens, SW1710;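 also: growth inhibition of SW1710 cells, determined with a cell viability assay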
Description: SANGER: Inhibition of human SW1710 cell growth in a cell viability assay.

SW48 = format: functional, cell-based, Homo sapiens; conditions: Homo sapiens, SW48;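 also: growth inhibition of SW48 cells, read out with a cell viability assay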
Description: SANGER: Inhibition of human SW48 cell growth in a cell viability assay.

SW684 = format: functional, cell-based, Homo sapiens; conditions: Homo sapiens, SW684;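 also: growth inhibition of human SW684 cells, measured by a cell viability assay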
Description: SANGER: Inhibition of human SW684 cell growth in a cell viability assay.

SW756 = format: functional, cell-based, Homo sapiens; conditions: Homo sapiens, SW756;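 also: growth inhibition of human SW756 cells, read out with a cell viability assay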
Description: SANGER: Inhibition of human SW756 cell growth in a cell viability assay.

T-24 = format: functional, cell-based, Homo sapiens; conditions: Homo sapiens, T-24;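 also: growth inhibition of T-24 cells, read out with a cell viability assay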
Description: SANGER: Inhibition of human T-24 cell growth in a cell viability assay.

T98G = format: functional, cell-based, Homo sapiens; conditions: Homo sapiens, T98G;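 also: growth inhibition of T98G cells, read out by a cell viability assay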
Description: SANGER: Inhibition of human T98G cell growth in a cell viability assay.

639-V = format: functional, cell-based, Homo sapiens; conditions: Homo sapiens, 639-V;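 also: growth inhibition of 639-V cells, read out with a cell viability assay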
Description: SANGER: Inhibition of human 639-V cell growth in a cell viability assay.

ACHN = format: functional, cell-based, Homo sapiens; conditions: Homo sapiens, ACHN;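 also: cell viability read-out used to gauge how strongly growth of human ACHN cells is suppressed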
Description: SANGER: Inhibition of human ACHN cell growth in a cell viability assay.

BCPAP = format: functional, cell-based, Homo sapiens; conditions: Homo sapiens, BCPAP;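 also: growth inhibition of BCPAP cells, read out in a cell viability assay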
Description: SANGER: Inhibition of human BCPAP cell growth in a cell viability assay.

CAL-54 = format: functional, cell-based, Homo sapiens; conditions: Homo sapiens, CAL-54;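 also: growth inhibition of CAL-54 cells, read out by a viability measurement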
Description: SANGER: Inhibition of human CAL-54 cell growth in a cell viability assay.

TE-11 = format: functional, cell-based, Homo sapiens; conditions: Homo sapiens, TE-11;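 also: growth inhibition of human TE-11 cells, read out by a cell viability assay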
Description: SANGER: Inhibition of human TE-11 cell growth in a cell viability assay.

TGW = format: functional, cell-based; conditions: Homo sapiens;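 also: growth inhibition of human TGW cells, read out with a cell viability assay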
Description: SANGER: Inhibition of human TGW cell growth in a cell viability assay.

UACC-62 = format: functional, cell-based, Homo sapiens; conditions: Homo sapiens, UACC-62;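 also: growth inhibition of human UACC-62 cells, read out by a cell viability assay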
Description: SANGER: Inhibition of human UACC-62 cell growth in a cell viability assay.

UACC-893 = format: functional, cell-based, Homo sapiens; conditions: Homo sapiens, UACC-893
Description: SANGER: Inhibition of human UACC-893 cell growth in a cell viability assay.

CAPAN-1 = format: functional, cell-based, Homo sapiens; conditions: Homo sapiens, CAPAN-1;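 also: growth suppression of CAPAN-1 cells, read out by a cell viability assay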
Description: SANGER: Inhibition of human CAPAN-1 cell growth in a cell viability assay.

COLO-679 = format: functional, cell-based, Homo sapiens; conditions: Homo sapiens, COLO-679
Description: SANGER: Inhibition of human COLO-679 cell growth in a cell viability assay.

SMILES: C=CCc1cccc(/C=N/NC(=O)CN2CCN(Cc3ccccc3)CC2)c1O [PAC-1]
- IC50 (CP50-MEL-B): > 2560 nM
- IC50 (DEL): > 2560 nM
- IC50 (DOHH-2): > 2560 nM
- IC50 (DOK): > 2560 nM
- IC50 (Daoy): 2190 nM
- IC50 (ETK-1): 2480 nM
- IC50 (EW-1): > 2560 nM
- IC50 (EW-18): > 2560 nM
- IC50 (EW-24): > 2560 nM
- IC50 (GCIY): > 2560 nM
- IC50 (HCC2157): > 2560 nM
- IC50 (HEC-1): > 2560 nM
- IC50 (HLE): > 2560 nM
- IC50 (HuO-3N1): > 2560 nM
- IC50 (JAR): > 2560 nM
- IC50 (KU-19-19): > 2560 nM
- IC50 (L-428): 1330 nM
- IC50 (LS-513): > 2560 nM
- IC50 (MEL-HO): 1770 nM
- IC50 (MKN-45): > 2560 nM
- IC50 (MZ2-MEL): > 2560 nM
- IC50 (NCI-H1838): > 2560 nM
- IC50 (NCI-H226): > 2560 nM
- IC50 (NCI-H510A): > 2560 nM
- IC50 (NCI-H727): 2000 nM
- IC50 (NOS-1): > 2560 nM
- IC50 (NUGC-3): > 2560 nM
- IC50 (RERF-LC-MS): > 2560 nM
- IC50 (RKO): > 2560 nM
- IC50 (RMG-I): > 2560 nM
- IC50 (S-117): > 2560 nM
- IC50 (SF-539): > 2560 nM
- IC50 (SH-4): > 2560 nM
- IC50 (SK-MEL-1): > 2560 nM
- IC50 (SK-PN-DW): > 2560 nM
- IC50 (SNU-C2B): > 2560 nM
- IC50 (SW1710): > 2560 nM
- IC50 (SW48): > 2560 nM
- IC50 (SW684): > 2560 nM
- IC50 (SW756): > 2560 nM
- IC50 (T-24): > 2560 nM
- IC50 (T98G): > 2560 nM
- IC50 (639-V): > 2560 nM
- IC50 (ACHN): 1690 nM
- IC50 (BCPAP): > 2560 nM
- IC50 (CAL-54): > 2560 nM
- IC50 (TE-11): > 2560 nM
- IC50 (TGW): > 2560 nM
- IC50 (UACC-62): > 2560 nM
- IC50 (UACC-893): > 2560 nM
- IC50 (CAPAN-1): > 2560 nM
- IC50 (COLO-679): 803 nM

SMILES: Cc1ccc(Nc2nccc(N(C)c3ccc4c(C)n(C)nc4c3)n2)cc1S(N)(=O)=O [PAZOPANIB]
- IC50 (CP50-MEL-B): > 8000 nM
- IC50 (DEL): > 8000 nM
- IC50 (DOHH-2): > 8000 nM
- IC50 (DOK): > 8000 nM
- IC50 (Daoy): 4780 nM
- IC50 (ETK-1): > 8000 nM
- IC50 (EW-1): > 8000 nM
- IC50 (EW-18): > 8000 nM
- IC50 (EW-24): > 8000 nM
- IC50 (GCIY): > 8000 nM
- IC50 (HCC2157): > 8000 nM
- IC50 (HEC-1): > 8000 nM
- IC50 (HLE): 1640 nM
- IC50 (HuO-3N1): > 8000 nM
- IC50 (JAR): > 8000 nM
- IC50 (KU-19-19): > 8000 nM
- IC50 (L-428): > 8000 nM
- IC50 (LS-513): > 8000 nM
- IC50 (MEL-HO): > 8000 nM
- IC50 (MKN-45): > 8000 nM
- IC50 (MZ2-MEL): 6930 nM
- IC50 (NCI-H1838): > 8000 nM
- IC50 (NCI-H226): > 8000 nM
- IC50 (NCI-H510A): > 8000 nM
- IC50 (NCI-H727): 5410 nM
- IC50 (NOS-1): 660 nM
- IC50 (NUGC-3): > 8000 nM
- IC50 (RERF-LC-MS): > 8000 nM
- IC50 (RKO): > 8000 nM
- IC50 (RMG-I): > 8000 nM
- IC50 (S-117): 7580 nM
- IC50 (SF-539): > 8000 nM
- IC50 (SH-4): > 8000 nM
- IC50 (SK-MEL-1): > 8000 nM
- IC50 (SK-PN-DW): > 8000 nM
- IC50 (SNU-C2B): > 8000 nM
- IC50 (SW1710): 4470 nM
- IC50 (SW48): > 8000 nM
- IC50 (SW684): > 8000 nM
- IC50 (SW756): > 8000 nM
- IC50 (T-24): > 8000 nM
- IC50 (T98G): > 8000 nM
- IC50 (639-V): > 8000 nM
- IC50 (ACHN): > 8000 nM
- IC50 (BCPAP): > 8000 nM
- IC50 (CAL-54): 3280 nM
- IC50 (TE-11): > 8000 nM
- IC50 (TGW): > 8000 nM
- IC50 (UACC-62): > 8000 nM
- IC50 (UACC-893): > 8000 nM
- IC50 (CAPAN-1): > 8000 nM
- IC50 (COLO-679): > 8000 nM
